Measurements taken from US20060084697A1, “Pi3k antagonists as radiosensitizers” (priority 2002, published 2006).

What was measured:
Akt [1] = assay: Western blot of radiation-induced Akt phosphorylation in HUVEC; assay type: cell-based, human
Description: HUVEC cells were obtained from Clonetics and were maintained in EBM-2 medium supplemented with EGM™-2MV SINGLEQUOTS® (Bio-Whittaker, Inc., Walkersville, Md., United States of America). An Eldorado-8 Cobalt-60 teletherapy unit (Atomic Energy of Canada Limited, Mississauga, Ontario, Canada) was used to irradiate endothelial cell cultures at a dose rate of 0.84 Gy per minute. Delivered doses ranging from 0 to 12 Gy were verified by use of thermoluminescence detectors.
In order to determine if Akt is phosphorylated in response to irradiation, cultured HUVEC cells were serum starved for 4 hours, exposed to irradiation, and the phosphorylation of Akt was examined in cell extracts by Western blotting. Total cellular protein was extracted after radiation treatment as follows. Cells were counted and then washed with iced-cold PBS twice before the addition of lysis buffer (M-PER™ mammalian protein extraction reagent; Pierce Chemical Company, Rockford, Ill., United States of America; or 20 mM Tris, 150 mM NaCl, 1 mM EDTA, 1% Triton X-100, 2.5 mM sodium pyrophosphate, 1 mM phenylmethylsulphonyl fluoride (PMSF), and […] Leupeptin (Roche Molecular Biochemicals, Indianapolis, Ind., United States of America)). Protein concentrations were quantified using the Biorad method (Bradford, 1976). 50 μg protein was loaded into each well of an 8% sodium dodecyl […]-polyacrylamide gel electrophoresis (SDS-PAGE) gel and separated by electrophoresis. The proteins were subsequently transferred onto 0.45 μm nitrocellulose membranes. Membranes were blocked by incubation for 2 hours at room temperature in phosphate buffered saline-Triton (PBST: 0.9% NaCl, 0.3% Triton X-100, pH 7.4) containing 10% nonfat dry milk.
The presence of Akt protein on the membrane was determined as follows. The membranes were incubated with a 1:1000 dilution of rabbit antibody directed against either phosphorylated (Ser473) or non-phosphorylated human Akt overnight at 4° C. Rabbit antibodies were obtained from Cell Signaling Technology, Beverly, Mass., United States of America. The blots were then washed with PBST to remove unbound rabbit antibodies. The washed blots were then incubated for 1 hour at room temperature with a donkey anti-rabbit IgG secondary antibody (Amersham Biosciences, Piscataway, N.J., United States of America) diluted 1:1000 in PBST. The blots were again washed with PBST to remove unbound donkey antibodies. The presences of both phosphorylated and non-phosphorylated human Akt were determined by chemiluminescent detection of donkey anti-rabbit/rabbit anti-human Akt complexes using the ECL™ detection system (Amersham Biosciences) according to the manufacturer's protocol, followed by autoradiography. […]

Akt [2] = assay: Western immunoblot of radiation-induced Akt phosphorylation in endothelial cells; assay type: cell-based; details: for radiation-induced activation of Akt: irradiated vascular endothelium, summary statement
Procedure: Broad spectrum RTK inhibitors were tested for their abilities to attenuate radiation-induced phosphorylation of Akt. SU6668, a tyrosine kinase inhibitor of VEGFR, PDGFR, FGFR, and c-Kit, was added to endothelial cells prior to irradiation. Western immunoblots using phospho-specific antibodies to phosphorylated Akt (P-Akt) were prepared.
(§1) The role of RTKs in radiation-induced activation of the Akt signaling pathway was examined by studying a panel of tyrosine kinase inhibitors including PDGF receptor antagonists in primary culture endothelial cells. PDGF receptor antagonists including SU6668, SU11248, and STI571, attenuated radiation-induced phosphorylation of both Akt and Erk. […] Similar efficacy in blocking Erk1/2 phosphorylation in irradiated endothelial cells was found.

HUVEC cells = assay: Apoptotic nuclei in HUVEC, H&E staining; assay type: cell-based, human; details: wortmannin 4 nM or LY294002 2 μM, 24 hours
Procedure: To determine whether PI3K antagonists enhance the activities of intrinsic cell death mechanisms induced by irradiation, apoptosis in HUVEC cells was studied following PI3K inhibition. HUVEC cells were treated with wortmannin (4 nM) or with LY294002 (2 μM) as described in Example 2. Cells were treated 30 minutes later with 3 Gy of ionizing radiation. Cultures were stained 24 hours later with hematoxylin and eosin (H&E) to reveal apoptotic nuclei. Stained cells were then examined by light microscopy. For each treatment group, four high power fields (40× objective) were examined, and both the number of cells with apoptotic nuclei and the total number of cells were determined. From these numbers, the percentage of apoptotic cells for each group was calculated.

Erk1/2 = assay: Radiation-induced Erk phosphorylation in endothelial cells; assay type: cell-based; details: for radiation-induced phosphorylation of Erk: primary culture endothelial cells (Example 16)
Procedure: Phosphorylation of MEK and Erk proteins was also investigated. Erk1/2 was activated following a single 3 Gy dose of irradiation. Erk was phosphorylated within 15 minutes, which resolved within 60 minutes. SU6668 is a broad spectrum inhibitor of split kinase domain RTKs, including Flk-1, Flt-1, PDGFR, fibroblast growth factor receptor (FGFR), and c-Kit (Mendel et al, 2003).
as §1

[3] = added to endothelial cells prior to irradiation (Example 15)
[4] = primary culture endothelial cells (Example 16)

Compound	radiation-induced activation of Akt (Akt [2])	radiation-induced phosphorylation of Akt (Akt [2]; [3])	radiation-induced phosphorylation of Erk (Erk1/2)	radiation-induced phosphorylation of Akt (Akt [2]; [4])	also measured
CCCCCCCCCCCCCC(=O)N[C@H](C)[C@@H](O)c1ccccc1 [MAPP]	–	–	–	–	Akt phosphorylation in response to 3 Gy irradiation (Akt [1]; antagonists added to HUVEC in culture (Example 18)): did not attenuate
O=c1c(-c2ccc(O)cc2)coc2cc(O)cc(O)c12 [Genistein, 4′,5,7-trihydroxyisoflavone]	attenuates	–	–	–	–
Cc1cc(C)c(/C=C2\C(=O)Nc3ccccc32)[nH]1 [SU5416]	–	did not attenuate	–	–	–
COC[C@H]1OC(=O)c2coc3c2[C@@]1(C)C1=C(C3=O)[C@@H]2CCC(=O)[C@@]2(C)C[C@H]1OC(C)=O [wortmannin, Wortmannin]	–	–	–	–	total Akt levels (Akt [1]; HUVEC, wortmannin 4 nM or LY294002 2 μM): no effect; apoptotic nuclei, % of cells (HUVEC cells; HUVEC pretreated 30 minutes before 3 Gy): 17%; apoptotic cells (HUVEC cells; unirradiated HUVEC): 3%
Cc1ccc(NC(=O)c2ccc(CN3CCN(C)CC3)cc2)cc1Nc1nccc(-c2cccnc2)n1 [STI571]	–	–	attenuated	attenuated	–
Cc1[nH]c(C=C2C(=O)Nc3ccccc32)c(C)c1CCC(=O)O [SU6668, 3-[2,4-dimethyl-5-(2-oxo-1,2-dihydro-indol-3-ylidenemethyl)-1H-pyrrol-3-yl]-propionic acid]	attenuate	blocked	attenuated	attenuated	Erk 1/2 phosphorylation (Erk1/2; added 30 minutes prior to irradiation, 3 Gy, did not entirely eliminate activation): attenuated
